In PubChem BioAssay AID1159564 (GlaxoSmithKline (GSK), 2015):
Calls of active or inactive are those of the source. The rule behind the calls is not given here.

Tested on: L. donovani-infected THP-1 macrophages, intracellular amastigote imaging
Assay: intracellular L. donovani amastigote inhibition, imaging, THP-1 host macrophages, host toxicity (AID 1159564)
[1] = measured here: THP-1 host cell toxicity
[2] = measured here: amastigotes per macrophage

SMILES	IC50	IC50 [1]	IC50 [2]
CC(c1ccc2c(c1)CCCC2)N(C)c1ncc2c(N)nc(N)nc2n1 (centres undefined)	2 µM	25 µM	0.79 µM
CC(C)Nc1nc(Cl)nc2ccccc12	2.5 µM	20 µM	1.3 µM
O=C(Nc1nc(-c2ccccn2)cs1)C1CCc2ccccc2C1 (centres undefined)	0.63 µM	7.9 µM	0.4 µM
CN(CC1CCCO1)S(=O)(=O)c1ccc(C(=O)Nc2nc(-c3ccccn3)cs2)cc1 (centres undefined)	6.3 µM	7.9 µM	3.2 µM
O=C(Cn1cnc2c(-c3ccccc3)csc2c1=O)N1CCCCC1	> 50 µM (inactive)	> 50 µM	> 50 µM
O=C(CCc1ccc(-c2ccccc2)o1)N1CCN(c2ccc(O)cc2)CC1	4 µM	> 50 µM	1.3 µM
CCCNC(=O)Nc1cccc(-c2nc3ncccc3o2)c1	13 µM	20 µM	16 µM
COc1cc(C2SCC(=O)Nc3c2c(C)nn3-c2nc3ccccc3s2)cc(OC)c1O (centres undefined)	0.32 µM	> 50 µM	0.25 µM
CCc1cccc(-n2nc(OCC(=O)NC3CCCC3)c3cccnc32)c1	1 µM	< 50 µM	1.3 µM
Cc1ccnc(NS(=O)(=O)c2ccc(NC(=O)c3ccc([N+](=O)[O-])s3)cc2)n1	10 µM	10 µM	5 µM
c1ccc2[nH]c(-c3ccc(N4CCCC4)nc3)nc2c1	> 50 µM (inactive)	32 µM	> 50 µM
COc1ccc2ncc(=O)n(CCN3CC[C@H](NCc4ncc(Cl)c5[nH]ncc45)[C@H](O)C3)c2n1	> 50 µM (inactive)	> 50 µM	> 50 µM
CNC(=O)Oc1ccc(C(=O)NCc2ccccc2)cc1OC(=O)NC	> 50 µM (inactive)	> 50 µM	> 50 µM
CC(=O)Nc1ccc(-c2cnc(N)c(-c3nc4ccc(F)cc4[nH]3)c2)cc1	1 µM	7.9 µM	0.5 µM
Cc1ccc(C)c(-n2nnnc2Sc2nc([N+](=O)[O-])nn2C)c1	> 50 µM (inactive)	> 50 µM	> 50 µM
O=C(c1ccc(Cl)cc1)c1ccc(OC(=O)N2CCOCC2)cc1	5 µM	> 50 µM	2 µM
CS(=O)(=O)c1ccc(Nc2nccc(Nc3n[nH]c4ccc(F)cc34)n2)c(F)c1	13 µM	16 µM	10 µM
CC(=Cc1ccccc1)CN1CCC(=O)N(Cc2cccnc2)CC1	> 50 µM (inactive)	40 µM	32 µM
Cc1ccc(C)c(OC2CCN(C(=O)C(C)n3ccnc3)CC2)c1 (centres undefined)	> 50 µM (inactive)	> 50 µM	0.32 µM

SMILES	IC50	IC50 [1]	IC50 [2]
O=C(CN(c1cccc(C(F)(F)F)c1)S(=O)(=O)c1ccc(Cl)cc1)NCc1ccc(F)c(F)c1	> 50 µM (inactive)	20 µM	> 50 µM
CN(C)c1ccc(N)cc1CN(CC1CCCO1)S(C)(=O)=O (centres undefined)	13 µM	> 50 µM	10 µM
COc1ccc2nc(N(Cc3cccnc3)C(=O)C3CCC3)sc2c1	> 50 µM (inactive)	> 50 µM	50 µM
O=C(Nc1ccc(Br)cn1)c1ccc(Cn2cnc([N+](=O)[O-])n2)cc1	> 50 µM (inactive)	> 50 µM	> 50 µM
CCNc1cc(-c2ccccn2)nc(Nc2ccc(OC)cc2)n1	0.5 µM	25 µM	0.4 µM
Cc1cccc(N2CCCN(Cc3c[nH]c4ccccc34)CC2)n1	10 µM	10 µM	10 µM
CN(C(=O)Nc1ccc2c(c1)CCN(C1CCC1)CC2)c1ccc(C#N)cc1	> 50 µM (inactive)	> 50 µM	> 50 µM
Clc1cc(Br)ccc1OCCCCn1ccnc1	25 µM	32 µM	6.3 µM
CCN(CC)S(=O)(=O)c1ccc(C(=O)Nc2cc(C)nn2-c2nc(C)c(C)c(=O)[nH]2)cc1	> 50 µM (inactive)	3.2 µM	> 50 µM
N#Cc1ccc(S(=O)(=O)N2CCN(Cc3cccc(-c4ccncc4)c3)CC2)cc1	> 50 µM (inactive)	> 50 µM	1.3 µM
O=C(N1CCc2ccccc2CC1)C1(C(=O)N2CCC(n3c(=O)[nH]c4ncccc43)CC2)CC1	> 50 µM (inactive)	> 50 µM	> 50 µM
Oc1c(-c2n[nH]c(Cc3ccc(F)cc3)n2)ncc2cccnc12	1 µM	20 µM	1 µM
N#Cc1ccc(S(=O)(=O)N2CCC3(CCN(c4ccccc4)C3=O)CC2)cc1	> 50 µM (inactive)	> 50 µM	> 50 µM
Cc1nc(N2CC(C)OC(C)C2)sc1C(=O)Nc1ccc2c(c1)OCO2 (centres undefined)	7.9 µM	> 50 µM	3.2 µM
COc1ccc(C(=O)NC2CCN(CCn3c(=O)ccc4ncc(F)cc43)CC2)cc1Cl	> 50 µM (inactive)	> 50 µM	16 µM
CN(C)c1ncc(-c2cncn2CCOc2ccc(Cl)cc2)cn1	> 50 µM (inactive)	> 50 µM	> 50 µM
CCC(=O)Nc1ccccc1C(=O)Nc1ccccn1	> 50 µM (inactive)	> 50 µM	> 50 µM
Cc1cc2cncn2c(C2CCCCN2C(=O)c2cccs2)n1 (centres undefined)	> 50 µM (inactive)	> 50 µM	> 50 µM
Cc1nc(-c2ccncc2)ncc1C(C)NC(=O)c1ccc(Cl)s1 (centres undefined)	> 50 µM (inactive)	> 50 µM	> 50 µM
